The target of assay [1] is T1, IRAK4 (Homo sapiens, UniProt Q9NWZ3).
T1 construct: endogenous in cells; host or cells: Karpas299
T1 sequence (Q9NWZ3 1-460): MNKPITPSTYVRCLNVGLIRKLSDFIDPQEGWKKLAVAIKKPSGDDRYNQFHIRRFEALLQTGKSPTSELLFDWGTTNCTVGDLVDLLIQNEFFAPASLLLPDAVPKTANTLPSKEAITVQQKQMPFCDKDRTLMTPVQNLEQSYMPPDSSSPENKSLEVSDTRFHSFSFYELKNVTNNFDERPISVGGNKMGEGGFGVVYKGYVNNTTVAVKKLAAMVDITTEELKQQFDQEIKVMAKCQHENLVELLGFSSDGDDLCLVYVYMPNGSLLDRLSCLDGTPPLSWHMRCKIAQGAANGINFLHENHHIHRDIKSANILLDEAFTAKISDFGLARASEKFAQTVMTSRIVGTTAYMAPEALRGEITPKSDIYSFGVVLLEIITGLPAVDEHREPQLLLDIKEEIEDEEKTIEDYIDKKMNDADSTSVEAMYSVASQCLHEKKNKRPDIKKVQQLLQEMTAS
Nature of the assay: IRAK4 Degradation Assay (Karpas299, HTRF/TR-FRET). In kind it is cell-based. To be noted: Karpas-299 cells; for Dmax: maximum percentage of degradation. In short, it runs like this: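 Karpas299 cells at 0.2 million per well were exposed to serially diluted compounds for 24 h or 5 h, then lysed. IRAK4 remaining in lysates was quantified by HTRF (665/620 nm) after overnight antibody incubation at room temperature. Percent degradation was fitted to a four-parameter curve to give IC50 (DC50).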

In assay [2] the target is T1, IRAK4. Kind of assay: IRAK4 Degradation Assay with Human Serum (Karpas299, HTRF/TR-FRET). In kind it is cell-based. Particulars: Karpas-299 in human serum, 24 hrs treatment; for DC50: read-out: IRAK4 degradtion with human serum assay DC50; for Dmax: read-out: IRAK4 degradtion with human serum assay Dmax (%). How it is done: IRAK4 degradation was measured using a TR-FRET-based method (Degorce, François, et al. Current chemical genomics. 2009, 3: 22). Karpas299 resuspended in Human serum AB (GEMINI, 100-512) were seeded into 96-well plates at the density of 0.2 million cells per well and then treated with a series dilution of compounds. After 24 hrs treatment, cells were pelleted via centrifugation and washed with PBS, add 40 μL lysis buffer (Cisbio) to each well after removal of the supernatant. Plates were then incubated at room temperature with shaking for 30 minutes. A total of 16 μL of cell lysates from each well of a 96-well plate was transferred to a 384-well white assay plate. IRAK4 level was quantitated using the HTRF kit as described by the manufacturer manual (Cisbio). FRET signals were measured using a PHERAstar FSX reader (BMG Labtech).
After treatment, add HTRF lysis buffer to each well; seal the plate and incubate 1 hour at room temperature on a plate shaker; Once the cells are lysed, 16 μL of cell lysate are transferred to a PE 384-well HTRF detection plate; 4 μL of pre-mixed HTRF antibodies are added to each well; Cover the plate with a plate sealer, spin 1000 rpm for 1 min, Incubate overnight at room temperature; Read on BMG PheraStar with HTRF protocol (337 nm-665 nm-620 nm).
The inhibition (degradation) percentage of the compound was calculated by the following equation: […]
The IC50 (DC50) value of a compound can be obtained by fitting the following equation
Wherein, X and Y are known values, and IC50, Hillslope, Top and Bottom are the parameters obtained by fitting with software. Y is the inhibition percentage (calculated from the equation), X is the concentration of the compound; IC50 is the concentration of the compound when the […] is reached. The smaller the IC50 value is, the stronger the inhibitory ability of the compound is. Vice versa, the higher the IC50 value is, the weaker the ability the inhibitory ability of the compound is; Hillslope represents the slope of the fitted curve, generally around 1 *; Bottom represents the minimum value of the curve obtained by data fitting, which is generally 0%±20%; Top represents the maximum value of the curve obtained by data fitting, which is generally 100%±20%. The experimental data were fitted by calculating and analyzing with Dotmatics data analysis software.

Where [3] appears, read: 24 h treatment, read-out: IRAK4 in Karpas-299 (24 h) Dmax (%).
[4] abbreviates: 24 h treatment, read-out: IRAK4 in Karpas-299 (24 h) DC50.
Setting [5] is: 5 h treatment, read-out: IRAK4 in Karpas-299 (5 h) Dmax (%).
Setting [6] is: 5 h treatment, read-out: IRAK4 in Karpas-299 (5 h) DC50.

Consider `CC(C)(O)c1cc2nn([C@H]3CC[C@H](N4CCN(C(=O)[C@@H]5CCN(c6cc(F)c(N7CCC(=O)NC7=O)c(F)c6)C5)CC4)CC3)cc2cc1NC(=O)c1ccc2cc(C#N)cnn12` [Example 106, 3-cyano-N-(2-((1R,4r)-4-(4-((R)-1-(4-(2,4-dioxotetrahydropyrimidin-1(2H)-yl)-3,5-difluorophenyl)pyrrolidine-3-carbonyl)piperazin-1-yl)cyclohexyl)-6-(2-hydroxypropan-2-yl)-2H-indazol-5-yl)pyrrolo[1,2-b]pyridazine-7-carboxamide], for which the Dmax at IRAK4 [1] (setting [3]) and at IRAK4 [2] was 97% in each case. The figures for the DC50 at IRAK4 [1] (setting [4]) and at IRAK4 [2] were 2.4 nM and 57 nM, respectively.

Regarding `CC(C)(O)c1cc2nn([C@H]3CC[C@H](N4CCN(CC5CN(c6cc(F)c(N7CCC(=O)NC7=O)c(F)c6)C5)CC4)CC3)cc2cc1NC(=O)c1ccc2cc(C#N)cnn12` [Example 108, 3-cyano-N-(2-((1r,4r)-4-(4-((1-(4-(2,4-dioxotetrahydropyrimidin-1(2H)-yl)-3,5-difluorophenyl)azetidin-3-yl)methyl)piperazin-1-yl)cyclohexyl)-6-(2-hydroxypropan-2-yl)-2H-indazol-5-yl)pyrrolo[1,2-b]pyridazine-7-carboxamide], the Dmax at IRAK4 [1] (setting [3]) is 97%; on IRAK4 [2], 94%. The figures for the half-maximal degradation concentration (DC50) at IRAK4 [1] (setting [4]) and on IRAK4 [2] were 3.9 nM and 28 nM, respectively.

As for `CC(C)(O)c1cc2nn([C@H]3CC[C@H](N4CCN(CCNc5cc(F)c(C6CCC(=O)NC6=O)c(F)c5)CC4)CC3)cc2cc1NC(=O)c1ccc2cc(C#N)cnn12` (stereo partly shown) [Example 135, 3-cyano-N-(2-((1r,4r)-4-(4-(2-((4-(2,6-dioxopiperidin-3-yl)-3,5-difluorophenyl)amino)ethyl)piperazin-1-yl)cyclohexyl)-6-(2-hydroxypropan-2-yl)-2H-indazol-5-yl)pyrrolo[1,2-b]pyridazine-7-carboxamide], the Dmax on IRAK4 [1] (setting [5]) came to 93%; at IRAK4 [1] (setting [3]), 98%; at IRAK4 [2] it was 100%. For the same molecule, the DC50 turned out to be 1.6 nM on IRAK4 [1] (setting [6]), 1.1 nM at IRAK4 [1] (setting [4]) and 7.1 nM at IRAK4 [2].

With `CC(C)(O)c1cc2nn(C34CC(N5CCN(C(=O)[C@@H]6CCN(c7cc(F)c([C@H]8CCC(=O)NC8=O)c(F)c7)C6)CC5)(C3)C4)cc2cc1NC(=O)c1cccc(C(F)(F)F)n1` [Example 152, N-(2-(3-(4-((R)-1-(4-((R)-2,6-dioxopiperidin-3-yl)-3,5-difluorophenyl)pyrrolidine-3-carbonyl)piperazin-1-yl)bicyclo[1.1.1]pentan-1-yl)-6-(2-hydroxypropan-2-yl)-2H-indazol-5-yl)-6-(trifluoromethyl)picolinamide], the values for the Dmax on IRAK4 [1] (setting [5]), at IRAK4 [1] (setting [3]) and at IRAK4 [2] were 96%, 96% and 98%, respectively. For the same molecule, the DC50 on IRAK4 [1] (setting [6]) is 3.8 nM; on IRAK4 [1] (setting [4]), 2.1 nM; at IRAK4 [2], 55 nM.

Turning to `CC(C)(O)c1cc2nn(C34CC(N5CCN(C(=O)C6CN(c7cc(F)c([C@H]8CCC(=O)NC8=O)c(F)c7)C6)CC5)(C3)C4)cc2cc1NC(=O)c1cccc(C(F)(F)F)n1` [Example 153, (R)—N-(2-(3-(4-(1-(4-(2,6-dioxopiperidin-3-yl)-3,5-difluorophenyl)azetidine-3-carbonyl)piperazin-1-yl)bicyclo[1.1.1]pentan-1-yl)-6-(2-hydroxypropan-2-yl)-2H-indazol-5-yl)-6-(trifluoromethyl)picolinamide], the figures for the Dmax on IRAK4 [1] (setting [3]) and at IRAK4 [2] were 97% and 94%, respectively. Also, the DC50 is 1.6 nM on IRAK4 [1] (setting [4]) and 50 nM on IRAK4 [2].

Regarding `CC(C)(O)c1cc2nn(C34CC(N5CCN(C(=O)C6CN(c7cc(F)c([C@H]8CCC(=O)NC8=O)c(F)c7)C6)CC5)(C3)C4)cc2cc1NC(=O)c1ccc2cc(C#N)cnn12` [Example 157, (R)-3-cyano-N-(2-(3-(4-(1-(4-(2,6-dioxopiperidin-3-yl)-3,5-difluorophenyl)azetidine-3-carbonyl)piperazin-1-yl)bicyclo[1.1.1]pentan-1-yl)-6-(2-hydroxypropan-2-yl)-2H-indazol-5-yl)pyrrolo[1,2-b]pyridazine-7-carboxamide], the Dmax on IRAK4 [1] (setting [3]) stood at 98%; on IRAK4 [2] it was 99%. Also, the DC50 at IRAK4 [1] (setting [4]) worked out at 0.4 nM; at IRAK4 [2] it was 21 nM.

For the molecule `CC(C)(O)c1cc2nn(C34CC(N5CCN(CCc6cc(F)c([C@H]7CCC(=O)NC7=O)c(F)c6)CC5)(C3)C4)cc2cc1NC(=O)c1ccc2cc(C#N)cnn12` [Example 159, (R)-3-cyano-N-(2-(3-(4-(4-(2,6-dioxopiperidin-3-yl)-3,5-difluorophenethyl)piperazin-1-yl)bicyclo[1.1.1]pentan-1-yl)-6-(2-hydroxypropan-2-yl)-2H-indazol-5-yl)pyrrolo[1,2-b]pyridazine-7-carboxamide], the Dmax on IRAK4 [1] (setting [3]) came out at 95%; at IRAK4 [2], 94%. Also, the results for the DC50 on IRAK4 [1] (setting [4]) and at IRAK4 [2] were 1.5 nM and 5.2 nM, respectively.

For the molecule `O=C1CC[C@H](c2c(F)cc(N3CC(CN4CCN([C@H]5CC[C@H](n6cc(NC(=O)c7csc(-c8cn[nH]c8)n7)c(C(F)F)n6)CC5)CC4)C3)cc2F)C(=O)N1` [Example 435, N-(3-(difluoromethyl)-1-((1r,4r)-4-(4-((1-(4-((R)-2,6-dioxopiperidin-3-yl)-3,5-difluorophenyl)azetidin-3-yl)methyl)piperazin-1-yl)cyclohexyl)-1H-pyrazol-4-yl)-2-(1H-pyrazol-4-yl)thiazole-4-carboxamide], the Dmax at IRAK4 [1] (setting [3]) is 100%. For the same molecule, the DC50 at IRAK4 [1] (setting [4]) worked out at 0.4 nM.

As for `CC(C)(O)c1cc2nn([C@H]3CC[C@H](N4CCN(CC(=O)N[C@@H](Cc5ccccc5)C(=O)NC5CCC(=O)NC5=O)CC4)CC3)cc2cc1NC(=O)c1ccc2cc(C#N)cnn12` (stereo partly drawn) [Example 439, 3-cyano-N-(2-((1S,4r)-4-(4-(2-(((2S)-1-((2,6-dioxopiperidin-3-yl)amino)-1-oxo-3-phenylpropan-2-yl)amino)-2-oxoethyl)piperazin-1-yl)cyclohexyl)-6-(2-hydroxypropan-2-yl)-2H-indazol-5-yl)pyrrolo[1,2-b]pyridazine-7-carboxamide], the Dmax at IRAK4 [1] (setting [3]) was 58%. For the same molecule, the DC50 on IRAK4 [1] (setting [4]) was 252 nM.

As to `CC(C)(O)c1cc2nn([C@H]3CC[C@H](N4CCN(c5ccc(CCC(=O)NC6CCC(=O)NC6=O)cc5)CC4)CC3)cc2cc1NC(=O)c1ccc2cc(C#N)cnn12` (stereo partly shown) [Example 440, 3-cyano-N-(2-((1r,4r)-4-(4-(4-(3-((2,6-dioxopiperidin-3-yl)amino)-3-oxopropyl)phenyl)piperazin-1-yl)cyclohexyl)-6-(2-hydroxypropan-2-yl)-2H-indazol-5-yl)pyrrolo[1,2-b]pyridazine-7-carboxamide], the Dmax on IRAK4 [1] (setting [3]) stood at 80%. Moreover, at IRAK4 [1] (setting [4]), the DC50 was 183 nM.

Take `CC(C)(O)c1cc2nn([C@H]3CC[C@H](N4CCN(C(=O)/C=C/C56CC7CC(CC(C7)C5)C6)CC4)CC3)cc2cc1NC(=O)c1ccc2cc(C#N)cnn12` [Example 441, N-(2-((1r,4r)-4-(4-((E)-3-(adamantan-1-yl)acryloyl)piperazin-1-yl)cyclohexyl)-6-(2-hydroxypropan-2-yl)-2H-indazol-5-yl)-3-cyanopyrrolo[1,2-b]pyridazine-7-carboxamide]: the Dmax at IRAK4 [1] (setting [3]) is 4%. In addition, the DC50 at IRAK4 [1] (setting [4]) is greater than 1000 nM.

Source of the values: patent US20250195513A1, “DEGRADATION OF IRAK4 BY CONJUGATION OF IRAK4 INHIBITORS WITH E3 LIGASE LIGAND AND METHODS OF USE” (BeiGene, Ltd., priority 2022, published 2025).
